Reference: patent US8877889B2, “Tumor cell-killing peptides” (Industry-Academic Cooperation Foundation, Chosun University, priority 2009, dated 2014)
Entries after “also recorded” stand apart in the source; their conditions may differ.

What was measured:
HeLa cells [1] = assay: Measurement of intracellular calcium with Fluo-4-AM; format: cell-based; details: 3 μM peptide
Description: (A-C) HeLa cells were loaded with 3 μM Fluo-4-AM for 30 minutes and then treated with 3 μM of indicated peptides (A: MTD, B: MTDmt3, C: MTDmt5). Fluorescence images and bright-field images were obtained with the laser scanning confocal microscope at 5-second intervals for 5 minutes. Relative fluorescence intensities (F/F0) at two region-of-interests (ROI 1 and 2) were measured at 5-second intervals for 5 minutes.
(E-G) HeLa cells were pretreated in calcium free KRB media alone (E), in KRB media with 10 μM 2-APB and 20 μM Ryanodine (F), or in KRB media with freshly made 30 μM CsA (G) for 2 hours. HeLa cells were then loaded with 3 μM Fluo-4-AM for 30 minutes and treated with 3 μM of MTD peptide. Images were obtained with the laser scanning confocal microscope at 5-second intervals for 5 minutes. Relative fluorescence intensities (F/F0) at two region-of-interests (ROI 1 and 2) were measured at 5-second intervals for 5 minutes.
For Ca^2+ measurements in the cytosol, HeLa cells were cultured in an Lab-Tek™ Chamber glass slide and loaded with Fluo-4-AM (Fluo-4-acetoxymethyl ester) at a final concentration of 3 μM for 30 minutes, followed by washing with PBS (Phosphate buffered saline) at pH 7.4 and the addition of fresh Ca^2+-free Krebs-ringer modified buffer (KRB: 125 mM NaCl, 5 mM KCl, 1 mM Na3PO4, 1 mM MgSO4, 5.5 mM glucose, and 20 mM HEPES, pH 7.4, at 37° C.) containing the indicated peptides. Time-lapse images were obtained at 488 nm excitation with the Argon laser scanning confocal microscope (Leica TCS SP5 Microsystems, Mannheim, Germany) at 10-second intervals for 5 minutes to visualize Fluo-4-AM.

A549 cells = assay: Peptide-induced cell death in A549 cells; format: cell-based; details: 5 μM, 1, 2 or 5 hours (FIG. 3D)
Description: (D) A549 cells were treated with indicated peptides for 1, 2, or 5 hours. % cell death was determined as described above.

NCI-H460 cells = assay: Peptide-induced cell death in NCI-H460 cells; format: cell-based; details: 5 μM, 2 or 5 hours (FIG. 3C)
Description: (C) NCI-H460 cells were treated with indicated peptides for 2 hours or 5 hours. % cell death was determined as described above.

HeLa cells [2] = assay: Live cell images and annexin V / SYTOX Green staining of dying cells; format: cell-based
Description: (§1) (A) HeLa cells were treated with MTD peptides (10 μM), or TRAIL (100 ng/ml). Images were taken at the indicated times (upper panel). Jurkat cells were treated with MTD peptide (10 μM) for 10 minutes, cells were processed for TEM. Images were obtained with 4,000× magnification (lower panel). N: nucleus, M: mitochondrion.
(D) HeLa cells were treated with the MTD (5 μM) peptide with or without the pretreatment of 10 μM BAPTA-AM for 2 hours. Live cell images were serially acquired at 10-second intervals for 10 minutes and shown at the indicated times.
(A) HeLa cells were stained with FITC-conjugated Annexin V antibody at 10 minutes after DMSO or MTD treatment. Images were obtained under the confocal microscope.
(B) HeLa cells were stained with SYTOX Green 10 minutes after DMSO or MTD treatment. Images were obtained using confocal microscope.

HeLa cells [3] = assay: Caspase activation, western blot of cell lysates; format: cell-based; details: 5 μM peptide
Description: (E) After treatment with the MTD peptide, MTDmt4, or MTDmt5 (5 μM) in HeLa cells, cell lysates were prepared at indicated times. Equal amounts of proteins were subjected to the SDS-PAGE and blotted onto PVDF membrane. After blocked with 5% nonfat milk in TBST (10 mM Tris-HCl, pH 7.5, 100 mM NaCl and 0.1% Tween-20), the membrane was probed with anti-caspase-3 (SantaCruz Biotechnology, Inc., Santa Cruz, Calif., USA), anti-caspase-8 (Cell signaling technology, Beverly, Mass., USA), anti-caspase-9 (SantaCruz Biotechnology, Inc., Santa Cruz, Calif.), anti-XIAP (Upstate Biotechnology, Dundee, United Kingdom), or anti-Bid (home-made) antibodies. Anti-actin antibody (Chemicon International, Inc., Temecula, Calif., USA) was used as equal loading control.

mPT pore = assay: Cobalt-quenched calcein assay; format: cell-based; details: HeLa cells; within 5 minutes after treatment
Description: (A) HeLa cells were loaded with 1 μM Calcein-AM and 2 mM cobalt for 15 minutes, and the mitochondria were stained by adding 25 μM MitoTracker for 2 minutes. The representative image of the calcein signals (green) that were overlapped with MitoTracker (Red) was shown.
(B) Time-lapse images of calcein and MitoTracker signals from HeLa cells that were not treated (top panel) or treated (bottom panel) with MTD peptide were obtained at 10-second intervals for 5 minutes. The representative images at the indicated time points were shown.
HeLa cells were loaded with 1 μM Calcein-AM and 2 mM cobalt in serum-free DMEM for 15 minutes, followed by adding 25 μM MitoTracker for 2 minutes to stain the mitochondria. Then, HeLa cells were briefly washed with HBSS (Hank's Buffered Salt Solution) and were treated with MTD peptide in calcium-free media containing 10% FBS (Fetal bovine serum). Time-lapse images were obtained at 10-second intervals for 10 minutes.

HeLa cells [4] = assay: Peptide-induced cell death, counting dead and survived cells under the light microscope; format: cell-based; details: peptides 10 μM, 20 μM, 30 μM, 10 minutes after treatment (FIG. 1B, 3A)
Description: (B) HeLa cells were treated with DMSO or the indicated peptides in increasing doses (10 μM, 20 μM, and 30 μM). % of cell death was determined at 10 minutes after treatment by counting the dead cells and survived cells under the light microscope.
(E) HeLa cells were transfected with substitution mutants of MTD peptide.
HeLa cells were treated with DMSO or with the indicated peptides at increasing doses (10 μM, 20 μM, or 30 μM). % cell death was determined 10 minutes after treatment by counting the dead cells and survived cells (300 cells per sample) under the light microscope.
(D) HeLa cells were treated with indicated amounts of MTD peptide for 1 hour, 2 hours, or 5 hours. % cell death was calculated by counting the dead cells and survived cells (200 to 500 cells per sample) under the light microscope. Data represent the means±SD of three independent experiments.

Jurkat cells = assay: Transmission electron microscopy of peptide-treated cells; format: cell-based; details: 10 μM for 10 minutes
Description: as §1
(§2) Jurkat cells or isolated mitochondria treated with MTD peptides were harvested by centrifugation and fixed with 2.5% glutaraldehyde for 2 hours followed by washing with 0.2 M sodium cacodylate buffer (pH 7.2) three times for 10-20 minutes. Fixation step was repeated overnight and washed with 0.2 M sodium cacodylate buffer three times. Samples were dehydrated with following sequential solutions 60% ethanol, 70% ethanol, 80% ethanol, 90% ethanol, 95% ethanol, and 100% ethanol twice for 20 minutes at 4° C., and then infiltrated by propylene oxide three times for 20 minutes. Samples were embedded with the mixture of propylene oxide and epon for 6 hours. Electron microscopic images were obtained using the Hitachi H-7600 electron microscope (80 kV, Hitachi, Tokyo, Japan). Mitochondria were isolated from mouse liver as previously described (1).

HeLa cells [5] = assay: HMGB1 release into the media, western blot; format: cell-based; details: 10 μM, 10 to 30 minutes, serum-free medium
Description: (C) HeLa cells were treated with DMSO or MTD peptides (10 μM) for 10 minutes or 30 minutes in the serum-free culture medium. After treatment, culture mediums were collected. Proteins in the conditioned media were precipitated by 2.5 vol. of methanol and 0.1 vol. of 5M NaCl. Precipitates and cell lysates were subjected to SDS-PAGE and western blot analysis with anti-HMGB1 antibody (R&D systems, Minneapolis, Minn.).

HeLa cells [6] = assay: Cytochrome c release by immunofluorescence; format: cell-based; details: HeLa cells; MTD peptide 5 μM
Description: (B) Plasmids (control vector or Noxa WT fused to GFP) were transfected into HeLa cells. After 2 days in the presence of zVAD-fmk, cytochrome c was stained with anti-cytochrome c antibody. Arrows indicate the diffused cytochrome c staining (upper panel). The release of cytochrome c was analyzed by immunofluorescence in HeLa cells after treatment with MTD peptides (5 μM) (lower panel).

[7] = system: Isolated mouse liver mitochondria; assay: Isolated mitochondria treated with peptide, transmission electron microscopy; details: 10 μM peptide; 1 hour at 30° C.
Description: (D) Isolated mouse liver mitochondria were treated with buffer (NT), MTD peptide (10 μM), or MTDmt5 peptide (10 μM), and then incubated for 1 hour at 30° C. Mitochondria were harvested by centrifugation (10,000×rpm) and then processed for transmission electron microscopy. Images (upper panel) were obtained with 7,000× magnification, and the relative mitochondrial sizes (lower panel) were calculated by measuring the diameters of about 40 individual mitochondria.
as §2

RRRRRRRRGRQKLLNLISKLF [MTD]
cytosolic calcium level change (HeLa cells [1]): substantially increased
time to cytosolic calcium increase after treatment (HeLa cells [1]): 1 to 3 min
susceptibility of cells to peptide (A549 cells): very resistant
susceptibility of cells to peptide (NCI-H460 cells): very susceptible
annexin V and SYTOX Green staining (HeLa cells [2]; 10 minutes after treatment): stained with annexin V and SYTOX Green
morphology of dying cells (HeLa cells [2]; MTD peptide 10 μM or TRAIL 100 ng/ml (FIG. 2A, 7A, 7B)): bubble-like structures of dying cells; also recorded: swollen cytoplasmic membrane
caspase activation (HeLa cells [3]): not activated
mitochondrial calcein signals (mPT pore opening) (mPT pore): significantly decreased
cell death-inducing activity (% of cell death) (HeLa cells [4]): comparable cell death-inducing activity to NoxaBH3MTD peptide
ultrastructural changes by transmission electron microscopy (Jurkat cells): swollen mitochondria, the enlarged nucleus and cell membrane swelling; also recorded: swelled mitochondria
HMGB1 release to the media (HeLa cells [5]): significantly released to the media
cytochrome c release from the mitochondria to the cytosol (HeLa cells [6]): not released; also recorded: neither cytochrome c release
morphological changes or mitochondrial size changes of isolated mitochondria [7]: did not show any morphological changes or mitochondrial size changes; also recorded: no morphological changes
